The results in this text go back to article PMC8942544, “Design and synthesis of benzodiazepines as brain penetrating PARP-1 inhibitors” (Journal of Enzyme Inhibition and Medicinal Chemistry, 2022).

The target in this experiment is T1, PARP-1 (Homo sapiens, UniProt P09874).
T1 construct: purchased BPS Bioscience 80580
As to the kind of experiment: PARP-1 enzyme inhibition assay (BPS Bioscience PARP Colorimetric Assay Kit). Format: biochemical. The note with it: compound concentration 50 nM; three independent tests. The procedure:
All target compounds were evaluated for PARP-1 enzyme inhibition activity at the concentration of 50 nM determined by previous pre-experiments.
The ability of the compounds to inhibit PARP-1 enzyme activity was assessed using BPS Bioscience's PARP Colorimetric Assay Kit (BPS Bioscience, Catalog # 80580). PARP-1 is known to catalyse the NAD-dependent addition of poly(ADP-ribose) to histones. The PARP-1 assay kit comes in a convenient 96-well format, with purified PARP-1 enzyme, histone mixture, activated DNA, and PARP-1 assay buffer. The key to the PARP-1 Colorimetric Activity Assay is the biotinylated substrate. With this kit, only three simple steps are required for PARP-1 reactions. First, histone proteins are coated on a 96-well plate. Next, the PARP-1 biotinylated substrate is incubated with an assay buffer that contains the PARP-1 enzyme. Finally, the plate is treated with streptavidin-HRP followed by the addition of the colorimetric HRP substrate to produce colour that can then be measured using a UV/Vis spectrophotometer microplate reader. IC50 values were calculated using GraphPad Prism5 software.

The structures appear in SMILES notation.

T1 sequence (P09874 whole entry): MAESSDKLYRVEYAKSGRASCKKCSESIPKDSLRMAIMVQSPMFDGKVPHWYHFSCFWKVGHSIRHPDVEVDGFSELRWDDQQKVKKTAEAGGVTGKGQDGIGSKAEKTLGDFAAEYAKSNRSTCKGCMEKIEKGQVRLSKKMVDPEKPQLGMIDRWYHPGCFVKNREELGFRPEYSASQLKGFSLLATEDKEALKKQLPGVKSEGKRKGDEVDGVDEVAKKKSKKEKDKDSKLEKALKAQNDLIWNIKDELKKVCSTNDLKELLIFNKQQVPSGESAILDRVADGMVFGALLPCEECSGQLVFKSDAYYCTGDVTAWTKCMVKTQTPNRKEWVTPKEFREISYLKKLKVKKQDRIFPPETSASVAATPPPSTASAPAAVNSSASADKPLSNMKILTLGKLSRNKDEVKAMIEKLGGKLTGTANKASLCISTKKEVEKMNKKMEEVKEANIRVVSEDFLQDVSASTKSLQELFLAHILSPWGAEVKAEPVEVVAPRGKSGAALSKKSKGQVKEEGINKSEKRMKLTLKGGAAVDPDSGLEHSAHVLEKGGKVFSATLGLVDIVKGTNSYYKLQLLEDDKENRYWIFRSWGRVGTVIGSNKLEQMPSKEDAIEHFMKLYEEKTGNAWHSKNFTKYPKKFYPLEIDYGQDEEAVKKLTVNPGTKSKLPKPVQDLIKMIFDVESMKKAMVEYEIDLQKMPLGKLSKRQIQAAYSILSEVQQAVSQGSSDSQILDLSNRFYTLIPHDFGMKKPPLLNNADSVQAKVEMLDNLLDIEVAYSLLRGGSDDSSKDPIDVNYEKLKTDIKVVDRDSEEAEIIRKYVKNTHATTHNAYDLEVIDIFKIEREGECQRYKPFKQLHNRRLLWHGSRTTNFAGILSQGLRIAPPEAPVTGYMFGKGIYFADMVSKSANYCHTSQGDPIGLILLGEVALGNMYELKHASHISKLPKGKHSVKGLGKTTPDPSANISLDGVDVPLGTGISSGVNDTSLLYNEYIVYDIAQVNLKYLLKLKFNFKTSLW

Regarding `O=C1NCCNc2ccccc21` [Compound H1], the inhibition at 0.05 µM came out at 6.2 ± 5.2%.
Turning to `O=C1NCCCc2ccccc21` [Compound H2], the inhibition at 0.05 µM is 5.2 ± 3.1%.
In the case of `O=C1CCNc2ccccc2N1` [Compound H3], the inhibition at 0.05 µM came out at 3.6 ± 2.5%.
`O=C1NCC(c2ccccc2)=Nc2ccccc21` [Compound H4, 2-Phenyl-3,4-dihydro-5H-benzo[e][1,4]diazepin-5-one] had an inhibition at 0.05 µM of 28.8 ± 3.4%.
Under `Cc1ccc(C2=Nc3ccccc3C(=O)NC2)cc1` [Compound H5, 2-(p-Tolyl)-3,4-dihydro-5H-benzo[e][1,4]diazepin-5-one] stands 37.1 ± 2.7%; under `COc1ccc(C2=Nc3ccccc3C(=O)NC2)cc1` [Compound H6, 2-(4-Methoxyphenyl)-3,4-dihydro-5H-benzo[e][1,4]diazepin-5-one], 31.9 ± 1.2%.
`COc1cccc(C2=Nc3ccccc3C(=O)NC2)c1` [Compound H7, 2-(3-Methoxyphenyl)-3,4-dihydro-5H-benzo[e][1,4]diazepin-5-one] gave an inhibition at 0.05 µM of 34.7 ± 2.9%.
Consider `O=C1NCC(c2ccc(F)cc2)=Nc2ccccc21` [Compound H8, 2-(4-Fluorophenyl)-3,4-dihydro-5H-benzo[e][1,4]diazepin-5-one], for which the inhibition at 0.05 µM was determined as 32.1 ± 3.6%.
In the case of `O=C1NCC(c2cccc(F)c2)=Nc2ccccc21` [Compound H9, 2-(3-Fluorophenyl)-3,4-dihydro-5H-benzo[e][1,4]diazepin-5-one] it was 36.6 ± 3%; in that of `O=C1NCC(c2ccc(Cl)cc2)=Nc2ccccc21` [Compound H10, 2-(4-Chlorophenyl)-3,4-dihydro-5H-benzo[e][1,4]diazepin-5-one], 33 ± 2.4%.
`O=C1NCC(c2cccc(Cl)c2)=Nc2ccccc21` [Compound H11, 2-(3-Chlorophenyl)-3,4-dihydro-5H-benzo[e][1,4]diazepin-5-one] returned an inhibition at 0.05 µM of 28.7 ± 2.6%.
Consider `N#Cc1ccc(C2=Nc3ccccc3C(=O)NC2)cc1` [Compound H12, 4-(5-Oxo-4,5-dihydro-3H-benzo[e][1,4]diazepin-2-yl)benzonitrile], for which 0.05 µM produced 15.7 ± 4.1% inhibition.
In the case of `O=C1NCC(c2ccc(O)cc2)=Nc2ccccc21` [Compound H13, 2-(4-Hydroxyphenyl)-3,4-dihydro-5H-benzo[e][1,4]diazepin-5-one], the inhibition at 0.05 µM is 37.9 ± 2.3%.
Compound `O=C1NCC(c2ccc(F)cc2F)=Nc2ccccc21` [Compound H14, 2-(2,4-Difluorophenyl)-3,4-dihydro-5H-benzo[e][1,4]diazepin-5-one] came in with an inhibition at 0.05 µM of 36.1 ± 3.6%.
In turn, `O=C1NCC(c2cc(F)cc(F)c2)=Nc2ccccc21` [Compound H15, 2-(3,5-Difluorophenyl)-3,4-dihydro-5H-benzo[e][1,4]diazepin-5-one] registered an inhibition at 0.05 µM of 36.9 ± 1.4%.
`COc1ccc(C2=Nc3ccccc3C(=O)NC2)cc1OC` [Compound H16, 2-(3,4-Dimethoxyphenyl)-3,4-dihydro-5H-benzo[e][1,4]diazepin-5-one]: at 0.05 µM the inhibition was 24.4 ± 3.2%.
The compound `O=C1NCC(c2ccc(Cl)c(Cl)c2)=Nc2ccccc21` [Compound H17, 2-(3,4-Dichlorophenyl)-3,4-dihydro-5H-benzo[e][1,4]diazepin-5-one] displayed an inhibition at 0.05 µM of 34.4 ± 3.6%.
Under `O=C1NCC(c2ccc3ccccc3c2)=Nc2ccccc21` [Compound H18, 2-(Naphthalen-2-yl)-3,4-dihydro-5H-benzo[e][1,4]diazepin-5-one] stands 35.9 ± 2.2%; under `O=C1NCC(c2ccc(Br)cc2)=Nc2ccccc21` [Compound H19, 2-(4-Bromophenyl)-3,4-dihydro-5H-benzo[e][1,4]diazepin-5-one], 38.4 ± 1.9%.
Under `COc1ccc(C2CNC(=O)c3ccccc3N2)cc1` (stereo not shown) [Compound H20, 2-(4-Methoxyphenyl)-1,2,3,4-tetrahydro-5H-benzo[e][1,4]diazepin-5-one] stands 27.9 ± 1.8%; under `COc1cccc(C2CNC(=O)c3ccccc3N2)c1` (stereo not shown) [Compound H21, 2-(3-Methoxyphenyl)-1,2,3,4-tetrahydro-5H-benzo[e][1,4]diazepin-5-one], 27.3 ± 2.3%.
`O=C1NCC(c2ccc(F)cc2)Nc2ccccc21` (stereo not shown) [Compound H22, 2-(4-Fluorophenyl)-1,2,3,4-tetrahydro-5H-benzo[e][1,4]diazepin-5-one] gave an inhibition at 0.05 µM of 33 ± 3%.
In the case of `O=C1NCC(c2cccc(F)c2)Nc2ccccc21` (stereo not shown) [Compound H23, 2-(3-Fluorophenyl)-1,2,3,4-tetrahydro-5H-benzo[e][1,4]diazepin-5-one] it was 32.1 ± 1.6%; in that of `O=C1NCC(c2ccc(F)cc2F)Nc2ccccc21` (stereo not shown) [Compound H24, 2-(2,4-Difluorophenyl)-1,2,3,4-tetrahydro-5H-benzo[e][1,4]diazepin-5-one], 34.8 ± 2.1%; in that of `O=C1NCC(c2cc(F)cc(F)c2)Nc2ccccc21` (stereo not shown) [Compound H25, 2-(3,5-Difluorophenyl)-1,2,3,4-tetrahydro-5H-benzo[e][1,4]diazepin-5-one], 39.2 ± 4.5%.
In the case of `COc1ccc(C2CNC(=O)c3ccccc3N2)cc1OC` (stereo not shown) [Compound H26, 2-(3,4-Dimethoxyphenyl)-1,2,3,4-tetrahydro-5H-benzo[e][1,4]diazepin-5-one] it was 37.4 ± 3.9%.
In turn, `O=C1NCC(c2ccc(Br)cc2)Nc2ccccc21` (stereo not shown) [Compound H27, 2-(4-Bromophenyl)-1,2,3,4-tetrahydro-5H-benzo[e][1,4]diazepin-5-one] showed an inhibition at 0.05 µM of 43.2 ± 2.5%.
Under `CN1CC(c2ccc(Br)cc2)Nc2ccccc2C1=O` (stereo not shown) [Compound H28, 2-(4-Bromophenyl)-4-methyl-1,2,3,4-tetrahydro-5H-benzo[e][1,4]diazepin-5-one] stands 24 ± 5.7%.
Take `CN1CC(c2ccc(Br)cc2)N(C)c2ccccc2C1=O` (stereo not shown) [Compound H29, 2-(4-Bromophenyl)-1,4-dimethyl-1,2,3,4-tetrahydro-5H-benzo[e][1,4]diazepin-5-one]: the inhibition at 0.05 µM came to 22.1 ± 3.2%.
Compound `CC1NC(=O)c2ccccc2N=C1c1ccc(Br)cc1` (stereo not shown) [Compound H30, 2-(4-Bromophenyl)-3-methyl-3,4-dihydro-5H-benzo[e][1,4]diazepin-5-one] yielded an inhibition at 0.05 µM of 39.8 ± 4.2%.
In the case of `CC1NC(=O)c2ccccc2NC1c1ccc(Br)cc1` (stereo not shown) [Compound H31, 2-(4-Bromophenyl)-3-methyl-1,2,3,4-tetrahydro-5H-benzo[e][1,4]diazepin-5-one], the inhibition at 0.05 µM was 28.5 ± 3.4%.
`O=C1NCC(c2ccc(-c3cn[nH]c3)cc2)=Nc2ccccc21` [Compound H32, 2-(4-(1H-pyrazol-4-yl)phenyl)-3,4-dihydro-5H-benzo[e][1,4]diazepin-5-one]: the inhibition at 0.05 µM came to 48.6 ± 1.2%.
For `Cn1cc(-c2ccc(C3=Nc4ccccc4C(=O)NC3)cc2)cn1` [Compound H33, 2-(4-(1-Methyl-1H-pyrazol-4-yl)phenyl)-3,4-dihydro-5H-benzo[e][1,4]diazepin-5-one], testing at 0.05 µM gave an inhibition of 46.5 ± 3.2%.
With `Cn1nccc1-c1ccc(C2=Nc3ccccc3C(=O)NC2)cc1` [Compound H35, 2-(4-(1-Methyl-1H-pyrazol-5-yl)phenyl)-3,4-dihydro-5H-benzo[e][1,4]diazepin-5-one], testing at 0.05 µM gave an inhibition of 44.3 ± 6.2%.
On to `Nc1cccc(-c2ccc(C3=Nc4ccccc4C(=O)NC3)cc2)c1` [Compound H36, 2-(3'-Amino-[1,1'-biphenyl]-4-yl)-3,4-dihydro-5H-benzo[e][1,4]diazepin-5-one], for which the inhibition at 0.05 µM worked out at 40.8 ± 4.7%.
`Nc1ccc(-c2ccc(C3=Nc4ccccc4C(=O)NC3)cc2)cc1` [Compound H37, 2-(4′-Amino-[1,1′-biphenyl]-4-yl)-3,4-dihydro-5H-benzo[e][1,4]diazepin-5-one]: 0.05 µM produced 46.1 ± 3.9% inhibition.
In the case of `Nc1ccc(-c2ccc(C3=Nc4ccccc4C(=O)NC3)cc2)cn1` [Compound H38, 2-(4-(6-Aminopyridin-3-yl)phenyl)-3,4-dihydro-5H-benzo[e][1,4]diazepin-5-one], the inhibition at 0.05 µM amounted to 34.7 ± 4.2%.
The compound `Nc1ncc(-c2ccc(C3=Nc4ccccc4C(=O)NC3)cc2)cn1` [Compound H39, 2-(4-(2-Aminopyrimidin-5-yl)phenyl)-3,4-dihydro-5H-benzo[e][1,4]diazepin-5-one] registered an inhibition at 0.05 µM of 33.9 ± 5.3%.
The compound `COc1ncc(-c2ccc(C3=Nc4ccccc4C(=O)NC3)cc2)cc1N` [Compound H40, 2-(4-(5-Amino-6-methoxypyridin-3-yl)phenyl)-3,4-dihydro-5H-benzo[e][1,4]diazepin-5-one] gave an inhibition at 0.05 µM of 35.4 ± 2.4%.
The compound `COc1cccc(-c2ccc(C3=Nc4ccccc4C(=O)NC3)cc2)c1` [Compound H41, 2-(3′-Methoxy-[1,1′-biphenyl]-4-yl)-3,4-dihydro-5H-benzo[e][1,4]diazepin-5-one] registered an inhibition at 0.05 µM of 28.3 ± 8.8%.
Under `O=C1NCC(c2ccc(-c3cccc(C(F)(F)F)c3)cc2)=Nc2ccccc21` [Compound H43, 2-(3′-(Trifluoromethyl)-[1,1′-biphenyl]-4-yl)-3,4-dihydro-5H-benzo[e][1,4]diazepin-5-one] stands 41.4 ± 3.5%; under `O=C1NCC(c2ccc(-c3ccc(C(F)(F)F)cc3)cc2)=Nc2ccccc21` [Compound H44, 2-(4′-(Trifluoromethyl)-[1,1′-biphenyl]-4-yl)-3,4-dihydro-5H-benzo[e][1,4]diazepin-5-one], 45.1 ± 5.2%.
For the compound `CN1CC=C(c2ccc(C3=Nc4ccccc4C(=O)NC3)cc2)CC1` [Compound H45, 2-(4-(1-Methyl-1,2,3,6-tetrahydropyridin-4-yl)phenyl)-3,4-dihydro-5H-benzo[e][1,4]diazepin-5-one], the inhibition at 0.05 µM is 42.5 ± 6%.
